Starred links: 1 amine or outer side, 2 acyl side, 3 side chain; linkers in the order of their positions; H or OH if unused. Positions of bridges follow the written chain, without caps; N, C: chain ends. Non-standard residues stand in square brackets, D forms with d. Residues, ends and D or L forms follow the SMILES beside them. *: point of attachment. Orn(4R-OH,5R-OCH2CH2NMe3+) = C[N+](C)(C)CCO[C@@H](N[*:3])[C@H](O)C[C@H](N[*:1])C(=O)[*:2]; pTerphenylCO(4''-OnC5H11) = CCCCCOc1ccc(-c2ccc(-c3ccc(C(=O)*)cc3)cc2)cc1; hTyr(3S-OH,4S-OH) = N[C@H](C(=O)O)[C@H](O)[C@@H](O)c1ccc(O)cc1; Pro(3S-OH,4S-Me) = C[C@H]1CN[C@H](C(=O)O)[C@H]1O; Hyp = O=C(O)[C@@H]1C[C@@H](O)CN1
What was measured:
[1] = system: Aspergillus fumigatus (ATCC 13073); assay: Neutropenic mouse aspergillosis model, survival; type: in vivo; conditions: CD101 2 mg/kg IV or IP one dose; 10 days
[2] = system: C. albicans SC-5314 biofilms; assay: Time lapse microscopy of biofilm formation; type: cell-based, Candida albicans; conditions: CD101 0.25 μg/ml; 0 h up to 16 h
Source text: The effective CD101 concentration obtained from the above experiments was used to monitor its effect on biofilm formation in real time using TLM, which involves capturing real-time images of a single frame at specific time intervals, allowing temporal monitoring of the interactions occurring between the drug and Candida biofilms. Captured images were combined in a time sequence, resulting in an animation depicting the sequence of events that occurred with the passage of time. Briefly, the discs with C. albicans (adhered for 90 min as above) were placed in a 35-mm-diameter glass-bottom Petri dish (MatTek Corp., Ashland, Mass.). […] Phase contrast images for this interaction were captured immediately from 0 h and followed up to 16-17 h on a Leica DMI 6000 B inverted microscope connected to a Retiga EXi Aqua camera (Q-imaging Vancouver British Columbia). To determine the structural changes in the maturing biofilm, both acquisition and analysis of a series of horizontal (xy) optical sections of the biofilm was done using Metamorph Imaging software (Molecular Devices, Downington, Pa.). Disc incubated with media alone was used as control.

candidemia = assay: Human subject with candidemia, single intravenous dose (Example 2); type: in vivo; conditions: single dose of 50-800 mg acetate salt of CD101, intravenous infusion
Procedure: (§1) A human subject is diagnosed with candidemia using standard diagnostic procedures. The subject receives treatment with a single dose of 50-800 mg (e.g., 75±25 mg, 100±25 mg, 150±50 mg, 200±50 mg, 250±50 mg, 300±50 mg, 350±50 mg, 400±50 mg, 450±50 mg, 500±100 mg, 600±100 mg, 700±100 mg, 800±100 mg, 900±50 mg, 1000 mg±100 mg, or 1100±100 mg) of the acetate salt of CD101 administered by intravenous infusion. No other antifungal treatment is provided to the subject within one to three weeks before or after administration of the single dose CD101 treatment.

invasive candidiasis = assay: Human subject with invasive candidiasis, single subcutaneous dose (Example 3); type: in vivo; conditions: single dose of 50-1200 mg acetate salt of CD101, subcutaneous injection
Procedure: A human subject is diagnosed with invasive candidiasis using standard diagnostic procedures. The subject receives treatment with a single dose of 50-1200 mg (e.g., 75±25 mg, 100±25 mg, 150±50 mg, 200±50 mg, 250±50 mg, 300±50 mg, 350±50 mg, 400±50 mg, 450±50 mg, 500±100 mg, 600±100 mg, 700±100 mg, 800±100 mg, 900±50 mg, 1000 mg±100 mg, or 1100±100 mg) of the acetate salt of CD101 administered by subcutaneous injection. No other antifungal treatment is provided to the subject within one to three weeks before or after administration of the single dose CD101 treatment.

aspergillosis = assay: Human subject with aspergillosis, single oral dose (Example 4); type: in vivo; conditions: single dose of 50 mg-1200 mg acetate salt of CD101, oral formulation
Procedure: as §1, with “aspergillosis” for “candidemia”, “50 mg-1200” for “50-800”, “in an oral formulation (e.g., in a pill, capsule, or liquid formulation).” for “by intravenous infusion.”

[3] = system: A. fumigatus clinical isolates; conditions: Aspergillus fumigatus clinical isolates; SENTRY, Pfaller, et al 2017; cited from earlier work
[4] = system: Aspergillus fumigatus (ATCC 13073); assay: Prophylaxis, neutropenic ICR mouse disseminated aspergillosis model, survival
C. glabrata = assay: Neutropenic murine disseminated candidiasis model, PK/PD targets, C. glabrata
[5] = C. glabrata, Median of 3 strains

CCCCCOc1ccc(-c2ccc(-c3ccc(C(=O)N[C@H]4C[C@@H](O)[C@@H](OCC[N+](C)(C)C)NC(=O)[C@@H]5[C@@H](O)[C@@H](C)CN5C(=O)[C@H]([C@@H](C)O)NC(=O)[C@H]([C@H](O)[C@@H](O)c5ccc(O)cc5)NC(=O)[C@@H]5C[C@@H](O)CN5C(=O)[C@H]([C@@H](C)O)NC4=O)cc3)cc2)cc1 [CD101] ({pTerphenylCO(4''-OnC5H11)}-[Orn(4R-OH,5R-OCH2CH2NMe3+)]T[Hyp][hTyr(3S-OH,4S-OH)]T[Pro(3S-OH,4S-Me)]; lactam 1-C)
survival vs vehicle [1]: significantly longer survival than vehicle | biofilm formation in real time [2]: only adhered cells with stunted growth, which failed to grow into mature biofilms | candidemia infection at follow-up visit (candidemia): confirmed to be resolved | invasive candidiasis infection at follow-up visit (invasive candidiasis): confirmed to be resolved | aspergillosis infection at follow-up visit (aspergillosis): confirmed to be resolved | MEC90 [3]: 0.015 µg/mL | survival ([4]; CD101 SC 5 mg/kg, 14 days): increased survival when prophylaxis was given closer to challenge | symptoms of infection (body weight, hunched posture, ruffled fur, immobility, hypothermia) ([4]; CD101 SC 5, 10 and 20 mg/kg on Day −5, −3 and −1): improved | survival ([4]; CD101 SC 10 and 20 mg/kg, any prophylactic treatment day, 14 days): All animals in the 10 and 20 mg/kg groups survived | 14-day survival ([4]; CD101 at 5 mg/kg SC administered one hour after infection): significant increase in the 14-day survival | survival ([4]; prophylaxis, Doses 0 mg/kg): 100% | survival ([4]; prophylaxis, single 5 mg/kg dose given up to 5 days prior to infection): improved survival depending on day given | 1 log kill 24 h Ave Free drug AUC/MIC (C. glabrata; C. glabrata 5592): 0.36 | 1 log kill dose (C. glabrata; C. glabrata 5592): 0.43 mg/kg | 1 log kill free drug AUC0-168h/MIC (C. glabrata; C. glabrata 5592): 2.54 | 1 log kill total drug AUC0-168h/MIC (C. glabrata; C. glabrata 5592): 317.50 | Stasis 24 h Ave free drug AUC/MIC (C. glabrata; C. glabrata 5592): 0.05 | Stasis free drug AUC0-168h/MIC (C. glabrata; C. glabrata 5592): 0.35 | Stasis total drug AUC0-168h/MIC (C. glabrata; C. glabrata 5592): 43.16 | Static dose (C. glabrata; C. glabrata 5592): 0.06 mg/kg | 1 log kill 24 h Ave Free drug AUC/MIC (C. glabrata; C. glabrata 10956): 1.20 | 1 log kill dose (C. glabrata; C. glabrata 10956): 17.25 mg/kg | 1 log kill free drug AUC0-168h/MIC (C. glabrata; C. glabrata 10956): 8.42 | 1 log kill total drug AUC0-168h/MIC (C. glabrata; C. glabrata 10956): 1052.22 | Stasis 24 h Ave free drug AUC/MIC (C. glabrata; C. glabrata 10956): 0.48 | Stasis free drug AUC0-168h/MIC (C. glabrata; C. glabrata 10956): 3.35 | Stasis total drug AUC0-168h/MIC (C. glabrata; C. glabrata 10956): 418.68 | Static dose (C. glabrata; C. glabrata 10956): 6.29 mg/kg | 1 log kill 24 h Ave Free drug AUC/MIC (C. glabrata; C. glabrata 35315): 0.42 | 1 log kill dose (C. glabrata; C. glabrata 35315): 2.39 mg/kg | 1 log kill free drug AUC0-168h/MIC (C. glabrata; C. glabrata 35315): 2.94 | 1 log kill total drug AUC0-168h/MIC (C. glabrata; C. glabrata 35315): 367.06 | Stasis 24 h Ave free drug AUC/MIC (C. glabrata; C. glabrata 35315): 0.07 | Stasis free drug AUC0-168h/MIC (C. glabrata; C. glabrata 35315): 0.50 | Stasis total drug AUC0-168h/MIC (C. glabrata; C. glabrata 35315): 62.50 | Static dose (C. glabrata; C. glabrata 35315): 0.34 mg/kg | 1 log kill 24 h Ave Free drug AUC/MIC (C. glabrata; C. glabrata, Mean of 3 strains): 0.66 | 1 log kill dose (C. glabrata; C. glabrata, Mean of 3 strains): 6.69 mg/kg | 1 log kill free drug AUC0-168h/MIC (C. glabrata; C. glabrata, Mean of 3 strains): 4.63 | 1 log kill total drug AUC0-168h/MIC (C. glabrata; C. glabrata, Mean of 3 strains): 578.93 | Stasis 24 h Ave free drug AUC/MIC (C. glabrata; C. glabrata, Mean of 3 strains): 0.20 | Stasis free drug AUC0-168h/MIC (C. glabrata; C. glabrata, Mean of 3 strains): 1.40 | Stasis total drug AUC0-168h/MIC (C. glabrata; C. glabrata, Mean of 3 strains): 174.78 | Static dose (C. glabrata; C. glabrata, Mean of 3 strains): 2.23 mg/kg | 1 log kill 24 h Ave Free drug AUC/MIC (C. glabrata; [5]): 0.42 | 1 log kill dose (C. glabrata; [5]): 2.39 mg/kg | 1 log kill free drug AUC0-168h/MIC (C. glabrata; [5]): 2.94 | 1 log kill total drug AUC0-168h/MIC (C. glabrata; [5]): 367.06 | Stasis 24 h Ave free drug AUC/MIC (C. glabrata; [5]): 0.07 | Stasis free drug AUC0-168h/MIC (C. glabrata; [5]): 0.5 | Stasis total drug AUC0-168h/MIC (C. glabrata; [5]): 62.50 | Static dose (C. glabrata; [5]): 0.34 mg/kg | kill at high doses (C. glabrata; C. glabrata, a number of strains): > 2 log10
